# Measurements published in article PMC10828244, “Covalently Binding Adenosine A3 Receptor Agonist ICBM Irreversibly Reduces Voltage-Gated Ca^2+ Currents in Dorsal Root Ganglion Neurons” (Purinergic Signalling, 2023).
# Experiments:
# [1] = target: T1, adenosine A3 receptor (A3AR) (Rattus norvegicus, UniProt P28647); assay: whole-cell patch clamp of Ca2+ currents in rat DRG neurons; washout, MRS1523 block and occlusion of Cl-IB-MECA; assay type: cell-based
# T1 construct: gene Adora3; native receptor in isolated rat DRG neurons
# T1 sequence (P28647 1-320): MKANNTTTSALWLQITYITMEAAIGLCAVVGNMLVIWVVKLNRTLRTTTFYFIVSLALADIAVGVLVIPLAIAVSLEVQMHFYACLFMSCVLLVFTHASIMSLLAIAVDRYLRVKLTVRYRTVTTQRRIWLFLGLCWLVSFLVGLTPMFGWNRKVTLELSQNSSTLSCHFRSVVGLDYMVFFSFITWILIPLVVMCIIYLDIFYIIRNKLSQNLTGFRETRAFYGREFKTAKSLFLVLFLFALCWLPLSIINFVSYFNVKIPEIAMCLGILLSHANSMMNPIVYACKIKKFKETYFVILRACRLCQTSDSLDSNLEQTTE
# [2] = target: T1, adenosine A3 receptor (A3AR); assay: whole-cell patch clamp of Ca2+ currents in rat DRG neurons ([…]); effect occluded by ICBM pre-incubation; assay type: cell-based
Compound,EC50 [1],whole-cell patch clamp of Ca2+ currents in rat DRG neurons (30 nM); effect occlu [2]
"CNC(=O)[C@H]1O[C@@H](n2cnc3c(NCc4cccc(N=C=S)c4)ncnc32)[C@H](O)[C@@H]1O [ICBM, N^6-(3-Isothiocyanatobenzyl)-5′-N-methylcarboxamidoadenosine]",0.0117 µM,
"CNC(=O)[C@H]1O[C@@H](n2cnc3c(NCc4cccc(I)c4)nc(Cl)nc32)[C@H](O)[C@@H]1O [Cl-IB-MECA, 2-Chloro-N^6-(3-iodobenzyl)-adenosine-5′-N-methyluronamide]",,"the prototypical A3AR agonist, Cl-IB-MECA, significantly decreases ICa (Fig. 2A–B) in these cells"
